Assay results from patent US8178688B2, “Benzamidine derivatives, process for the preparation thereof and pharmaceutical composition comprising the same” (Dong Wha Pharmaceutical Co., Ltd., priority 2004, dated 2012).
Read-outs that look alike come from different tables or passages of the source.

How the values were obtained:
[1] = tested on: osteoclast differentiation; assay: Inhibitory effects on osteoclast differentiation (co-culture of bone marrow cells with osteoblast, TRAP staining); type: cell-based, mice; conditions: for inhibition at 1 µM: Mus musculus, Osteoclast, 168 h, read-out: % inhibitory activity on osteoclastogenesis
Method in brief: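 Bone marrow cells from 6–8-week male ddY mice co-cultured with neonatal ICR mouse calvarial osteoblasts in α-MEM/FBS with dexamethasone (10^−7M) and vitamin D3 (10^−8M) for 7 days, compound and medium renewed every 2–3 days. TRAP-positive cells with ≥3 nuclei counted; inhibition given as percent of control.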

cells = assay: Cytotoxicity test (MTT); type: cell-based; conditions: 10^−6M, 72 hrs, compared with the control group
Protocol: Cytotoxic effect of benzamidine derivatives was evaluated by the experiment described below.
The test substance was diluted in appropriate solvent at 10^−2M concentration. […] Cells to be used in cytotoxitic test were plated on a 96-well microplate in a dose of 1×10^4 cell/100 μL per well and cultured for 72 hrs. 25 μL of MTT [3-(4,5-dimethyl-2-thiazolyl)-2,5-diphenyl-2H-tetrazolium bromide] dissolved in PBS at 2 mg/mL were added before 4 hrs of the end of culture. After reaction, the plates were centrifuged, medium was decanted and 100 μL of DMSO was added to dissolve formazan. Lastly, the absorbance of developed plates was measured at 540 nm.

[2] = 1 m, co-culture of bone marrow cells and osteoblast, 7 days, TRAP-positive osteoclasts versus controls
[3] = 1 μm, co-culture of bone marrow cells and osteoblast, 7 days, TRAP-positive osteoclasts versus controls

SMILES	inhibition at 1 µM [1, 2] [%]	Survival rates of the cells (cells; MC3T3-E1 cells) [%]	Survival rates of the cells (cells; ST2 cells) [%]	inhibition at 1 µM [1, 3] [%]	% inhibitory activity on osteoclastogenesis ([1]; co-culture of bone marrow cells and osteoblast, 7 days, TRAP-positive osteoclasts versus controls) [%]	inhibition at 1 µM [1] [%]
CCc1sc(NC)nc1-c1ccc(OCCCCCOc2ccc(C(=N)NO)cc2)cc1 [Example 96, N-hydroxy-4-(5-[4-(5-ethyl-2-methylamino-1,3-thiazol-4-yl)phenoxy]pentoxy)-benzamidine]	64.3	65.1	27.8			
CCCNc1nc(-c2ccc(OC(C)CCCOc3ccc(C(=N)NO)cc3)cc2)c(C)s1 (stereo not drawn) [Example 88, N-hydroxy-4-(4-[4-(5-methyl-2-propylamino-1,3-thiazol-4-yl)phenoxy]pentoxy)-benzamidine]	15.9	94.3	48.7			
CCN(CCO)c1nc(-c2ccc(OCCCCCOc3ccc(C(=N)NO)cc3)cc2)c(C)s1 [Example 121, N-hydroxy-4-(5-[4-(2-(ethyl-(2-hydroxyethyl)-amino)-5-methyl-1,3-thiazol-4-yl)phenoxy]pentoxy)-benzamidine]	69.4	100.0	41.4			
CCCCc1sc(C(C)C)nc1-c1ccc(OCCCCCOc2ccc(C(=N)NO)cc2)cc1 [Example 32, N-hydroxy-4-(5-[4-(5-butyl-2-isopropyl-1,3-thiazol-4-yl)phenoxy]pentoxy)-benzamidine]		100.0	55.1	59.4		
CCc1sc(N(CC)CCO)nc1-c1ccc(OCCCCCOc2ccc(C(=N)NO)cc2)cc1 [Example 130, N-hydroxy-4-(5-[4-(5-ethyl-2-(ethyl-(2-hydroxyethyl)-amino)-1,3-thiazol-4-yl)phenoxy]pentoxy)-benzamidine]	55.8	100.0	37.2			
N=C(NO)c1ccc(OCCCCCOc2ccc(-c3nc(NC(=O)c4ccncc4)sc3CC3CCCC3)cc2)cc1 [Example 112, N-hydroxy-4-(5-[4-(5-cyclopentylmethyl-2-(4-pyridylcarbonyl)amino-1,3-thiazol-4-yl)phenoxy]pentoxy)-benzamidine]	76.8	86.7	63.6			
CC(C)c1sc(N(C)Cc2cccnc2)nc1-c1ccc(OCCCCCOc2ccc(C(=N)NO)cc2)cc1 [Example 141, N-hydroxy-4-(5-[4-(5-isopropyl-2-(methyl-(pyridin-3-yl-methyl)amino)-1,3-thiazol-4-yl)phenoxy]pentoxy)-benzamidine]	74.8	52.8	27.9			
Cc1sc(N(C)Cc2ccccc2)nc1-c1ccc(OCCCCCOc2ccc(C(=N)NO)cc2)cc1 [Example 125, N-hydroxy-4-(5-[4-(2-(benzyl-methyl-amino)-5-methyl-1,3-thiazol-4-yl)phenoxy]pentoxy)-benzamidine]	73	57.6	47.9			
CCc1sc(N(C)Cc2cccnc2)nc1-c1ccc(OCCCCCOc2ccc(C(=N)NO)cc2)cc1 [Example 134, N-hydroxy-4-(5-[4-(5-ethyl-2-(methyl-(pyridin-3-yl-methyl)amino)-1,3-thiazol-4-yl)phenoxy]pentoxy)-benzamidine]	63.7	43.9	37.4			
CCCNc1nc(-c2ccc(OCCCCCOc3ccc(C(=N)NO)cc3)cc2)c(CC)s1 [Example 98, N-hydroxy-4-(5-[4-(5-ethyl-2-propylamino-1,3-thiazol-4-yl)phenoxy]pentoxy)-benzamidine]	94.7	77.1	26.9			
CCc1sc(N2CCCCC2)nc1-c1ccc(OCCCCCOc2ccc(C(=N)NO)cc2)cc1 [Example 166, N-hydroxy-4-(5-[4-(5-ethyl-2-piperdino-1,3-thiazol-4-yl)phenoxy]pentoxy)-benzamidine]		71.2	52.4		81.2	
CCCCCc1nc(-c2ccc(OCCCCCOc3ccc(C(=N)NO)cc3)cc2)c(CC2CCCC2)s1 [Example 51, N-hydroxy-4-(5-[4-(5-cyclopentylmethyl-2-pentyl-1,3-thiazol-4-yl)phenoxy]pentoxy)-benzamidine]		95.5	66.5			74.8
CCCCc1sc(C2CCCCC2)nc1-c1ccc(OCCCCCOc2ccc(C(=N)NO)cc2)cc1 [Example 35, N-hydroxy-4-(5-[4-(5-butyl-2-cyclohexyl-1,3-thiazol-4-yl)phenoxy]pentoxy)-benzamidine]		73.6	56.3			69.8
Cc1sc(C(C)(C)C)nc1-c1ccc(OCCCCCOc2ccc(C(=N)NO)cc2)cc1 [Example 16, N-hydroxy-4-(5-[4-(2-t-butyl-5-methyl-1,3-thiazol-4-yl)phenoxy]pentoxy)-benzamidine]		39.6	30.1			64.3
CCS(=O)(=O)Nc1nc(-c2ccc(OCCCCCOc3ccc(C(=N)NO)cc3)cc2)c(C)s1 [Example 93, N-hydroxy-4-(5-[4-(2-ethanesulfonylamino-5-methyl-1,3-thiazol-4-yl)phenoxy]pentoxy)-benzamidine]	63.7	66.8	55.0			
N=C(NO)c1ccc(OCCCCCOc2ccc(-c3nc(-c4cccnc4)sc3CC3CCCC3)cc2)cc1 [Example 49, N-hydroxy-4-(5-[4-(5-cyclopentylmethyl-2-pyridin-3-yl-1,3-thiazol-4-yl)phenoxy]pentoxy)-benzamidine]		83.5	39.0	77.1		
CNc1nc(-c2ccc(OCCCCCOc3ccc(C(=N)NO)cc3)cc2)c(CC2CCCC2)s1 [Example 109, N-hydroxy-4-(5-[4-(5-cyclopentylmethyl-2-methylamino-1,3-thiazol-4-yl)phenoxy]pentoxy)-benzamidine]	80.5	65.7	39.0			
N=C(NO)c1ccc(OCCCCCOc2ccc(-c3csc(N)n3)cc2)cc1 [Example 57, N-hydroxy-4-(5-[4-(2-amino-1,3-thiazol-4-yl)phenoxy]pentoxy)-benzamidine]		52.1	19.9	60.4		
CCCCc1sc(N(CCC)CCC)nc1-c1ccc(OCCCCCOc2ccc(C(=N)NO)cc2)cc1 [Example 146, N-hydroxy-4-(5-[4-(5-butyl-2-dipropylamino-1,3-thiazol-4-yl)phenoxy]pentoxy)-benzamidine]	94.4	88.4	38.2			
N=C(NO)c1ccc(OCCCCCOc2ccc(-c3nc(-c4ccccc4)sc3Cc3ccccc3)cc2)cc1 [Example 40, N-hydroxy-4-(5-[4-(5-benzyl-2-phenyl-1,3-thiazol-4-yl)phenoxy]pentoxy)-benzamidine]		100.0	53.3	60.1		
N=C(NO)c1ccc(OCCCCCOc2ccc(-c3csc(C4CCCCC4)n3)cc2)cc1 [Example 8, N-hydroxy-4-(5-[4-(2-cyclohexyl-1,3-thiazol-4-yl)phenoxy]pentoxy)-benzamidine]		76.9	46.2	88.3		
CNc1nc(-c2ccc(OCCCCCOc3ccc(C(=N)NO)cc3)cc2)c(Cc2ccccc2)s1 [Example 107, N-hydroxy-4-(5-[4-(5-benzyl-2-methylamino-1,3-thiazol-4-yl)phenoxy]pentoxy)-benzamidine]	53.2	65.2	43.9			
CNc1nc(-c2ccc(OCCCCCOc3ccc(C(=N)NO)cc3)cc2)c(C)s1 [Example 86, N-hydroxy-4-(5-[4-(5-methyl-2-methylamino-1,3-thiazol-4-yl)phenoxy]pentoxy)-benzamidine]	52.9	100.0	48.6			
CCc1sc(N(CCO)CCO)nc1-c1ccc(OCCCCCOc2ccc(C(=N)NO)cc2)cc1 [Example 139, N-hydroxy-4-(5-[4-(2-(bis-(2-hydroxyethyl)amino)-5-ethyl-1,3-thiazol-4-yl)phenoxy]pentoxy)-benzamidine]	84.1	77.4	48.1			
CCCCc1sc(C(C)(C)C)nc1-c1ccc(OCCCCCOc2ccc(C(=N)NO)cc2)cc1 [Example 37, N-hydroxy-4-(5-[4-(5-butyl-2-t-butyl-1,3-thiazol-4-yl)phenoxy]pentoxy)-benzamidine]		74.4	40.5			52.9
